Results as given in patent publication US20190374509A1, “Methods of Using Metamizole for Treatment of Pyrexia in Equines” (Kindred Biosciences, Inc., priority 2018, published 2019).

How the values were obtained:
horses [1] = assay: Margin of safety study: lung bacterial culture at necropsy
horses [2] = assay: Margin of safety study, IV three times daily for 9 days: necropsy, organ weights, histopathology; type: in vivo; details: for Liver (absolute weight) LS Means / Liver (relative to body weight) LS Means: necropsy
Protocol: A study was conducted to evaluate the margin of safety of metamizole when administered intravenously to horses for 9 days at doses of 0 mg/kg (0×), 30 mg/kg (1×), 60 mg/kg (2×), and 90 mg/kg (3×) of body weight three times daily (TID), every 8 hours±30 min.
Treatment phase involved administration of the investigational drug or placebo. The investigational drug was a sterile injectable formulation of dipyrone (Zimeta™, Corden Pharma, Caponago, Italy) (500 mg/mL) in 100 mL glass bottles. The placebo was sterile injectable saline (Nova-Tech Inc, Grand Island, NE) (0.9% sodium chloride) in 500 mL plastic bottles labeled for veterinary use. Dipyrone treatment groups were 30 mg/kg (1×), 60 mg/kg (2×), and 90 mg/kg (3×). Placebo treatment group was saline administered at a volume to match the 3× dipyrone group (0×). The dose was calculated based on body weight and administered three times daily for nine consecutive days. Due to the large volume of injection at the higher dose groups, treatment was administered via indwelling intravenous (IV) catheters. Intravenous catheters were placed using standard techniques. Horses were sedated with xylazine (AnaSed® LA, VetOne, MWI, Boise, Id.) and the skin was desensitized with subcutaneous injection of lidocaine (VetOne, MWI, Boise, Id.). Intravenous catheters were replaced at the discretion of the study director and were maintained with heparinized saline flush prior to and following dose administration.
Randomization occurred on Study Day −1. […] .
For continuous endpoints with single post-treatment measures (organ weight and organ weight relative to body weight), analysis of variance (ANOVA) was used to evaluate a model including treatment, sex, and treatment by sex interaction as fixed effects. If treatment by sex interaction was significant, within sex pair-wise comparison of each treatment group versus placebo using linear contrasts were performed. If treatment by sex interaction was not significant and treatment effect was significant, pair-wise comparison of each treatment group versus placebo for pooled sex were performed. In particular, sex specific organ weights (ovaries) were analyzed by ANOVA including only treatment as a fixed effect.

horses [3] = assay: Coagulation effects study, IV BID or TID for 9 days: coagulation panel; type: in vivo; details: for Prothrombin Time LSMEAN: in s; for Difference in Individual Horse Day 10 PT and Baseline PT: Day 10 PT minus highest baseline PT
Protocol: The purpose of this study was to evaluate the effects of metamizole on coagulation parameters and pharmacokinetic parameters when administered intravenously to horses for 9 days at doses of 0 mg/kg (0×), 30 mg/kg (1×), 60 mg/kg (2×), and 90 mg/kg (3×) of body weight. Doses of 0×, 1×, 2×, and 3× were administered twice daily (BID), every 12 hours±120 min. Doses of 1× and 2× were administered three times daily (TID), every 8 hours±120 min. Metamizole plasma concentrations were assessed in the 1×BID, 3×BID, 1×TID, and 2×TID treatments groups to evaluate for evidence of accumulation.
This was a prospective, randomized, masked, placebo-controlled, parallel-group laboratory study. The protocol was approved by the research laboratory's Institutional Animal Care and Use Committee (IACUC). The study was conducted in compliance with the principles of the relevant CVM Good Clinical Practices Guidelines. Horse care and housing was in compliance with Guide for the Care and Use of Agricultural Animals in Research and Teaching. The study was conducted at a research laboratory with extensive experience in regulatory studies of large animals in the United States.
The investigational drug was a sterile injectable formulation of dipyrone (Zimeta®, Corden Pharma, Caponago, Italy) (500 mg/mL) in 100 mL glass bottles. The placebo was sterile injectable saline (0.9% Saline, Nova-Tech Inc, Grand Island, NE) (0.9% sodium chloride) in 500 mL plastic bottles labeled for veterinary use. Dipyrone treatment groups were 30 mg/kg/dose (1×) administered twice daily (BID), 1× administered three times daily (TID), 60 mg/kg/dose (2×) BID, 2×TID, and 90 mg/kg/dose (3×) BID. Placebo treatment group, (0×) BID, were saline administered at a volume to match the 1× dipyrone group. The dose was calculated based on body weight and administered for nine consecutive days (Days 1-9). Due to the large volume of the injection at the higher test intervals, treatment was administered via indwelling intravenous catheters. Intravenous catheters were placed using standard techniques. Horses were sedated with xylazine (XylaMed™, VetOne, MWI, Boise, Id.) (0.6 mg/kg, IV) and the skin was desensitized with subcutaneous injection of lidocaine (Lidocaine 2%, VetOne, MWI, Boise, Id.). Intravenous catheters were replaced at the discretion of the study director and were maintained with heparinized saline flush prior to, and following, dose administration.
Horses were acclimated to the facility for 14 days prior to start of the treatment phase. […] On Day −1, thirty-two horses were randomized by the study statistician and moved to their assigned pens. On Day −1 (baseline), Day 4, and Day 10 horses had blood collected for a coagulation panel. A physical exam was performed prior to study start and on Day 10.
For continuous endpoints with repeated post-treatment measurements (coagulation), repeated measurement analysis of covariance (SAS MIXED procedure repeated measures of analysis of covariance (RMANCOVA)) were used to evaluate a model including treatment, time, sex, treatment by sex interaction, treatment by time interaction, time by sex interaction, and treatment by time by sex three-way interaction as fixed effects. In addition, baseline values were included as a covariate and remained in the model regardless of its significance. Baseline values were defined as the values prior to and nearest to the first dosing.

[4] = 2X TID, 60 mg/kg IV three times daily
[5] = 3X BID, 90 mg/kg IV twice daily

Cc1c(N(C)CS(=O)(=O)O)c(=O)n(-c2ccccc2)n1C [dipyrone, [(2,3-dihydro-1,5-dimethyl-3-oxo-2-phenyl-1H-pyrazol-4-yl)methylamino] methanesulfonic acid]
S. aureus cultured at necropsy, number positive horses (horses [1]; 1X, 30 mg/kg IV every 8 hours): 1
Acinetobacter sp. cultured at necropsy, number positive horses (horses [1]; 2X, 60 mg/kg IV every 8 hours): 2X (n = 1)
Aeromonas sp. cultured at necropsy, number positive horses (horses [1]; 2X, 60 mg/kg IV every 8 hours): 2X (n = 1)
Pantoea sp. cultured at necropsy, number positive horses (horses [1]; 2X, 60 mg/kg IV every 8 hours): 2X (n = 1)
Pseudomonas sp. cultured at necropsy, number positive horses (horses [1]; 2X, 60 mg/kg IV every 8 hours): 2X (n = 1)
S. aureus cultured at necropsy, number positive horses (horses [1]; 2X, 60 mg/kg IV every 8 hours): 2
S. dysgalactiae subsp. equisimilis cultured at necropsy, number positive horses (horses [1]; 2X, 60 mg/kg IV every 8 hours): 2X (n = 1)
S. equi subsp. zooepidemicus cultured at necropsy, number positive horses (horses [1]; 2X, 60 mg/kg IV every 8 hours): 0X (n = 2), 2X (n = 1), 3X (n = 1)
S. aureus cultured at necropsy, number positive horses (horses [1]; 3X, 90 mg/kg IV every 8 hours): 2
S. equi subsp. zooepidemicus cultured at necropsy, number positive horses (horses [1]; 3X, 90 mg/kg IV every 8 hours): 0X (n = 2), 2X (n = 1), 3X (n = 1)
Liver (absolute weight) LS Means (horses [2]; 1X, 30 mg/kg IV every 8 hours): 6280.00 g
Liver (relative to body weight) LS Means (horses [2]; 1X, 30 mg/kg IV every 8 hours): 13.69
Liver (absolute weight) LS Means (horses [2]; 2X, 60 mg/kg IV every 8 hours): 6892.50 g
Liver (relative to body weight) LS Means (horses [2]; 2X, 60 mg/kg IV every 8 hours): 15.28
Liver (absolute weight) LS Means (horses [2]; 3X, 90 mg/kg IV every 8 hours): 7765.21 g
Liver (relative to body weight) LS Means (horses [2]; 3X, 90 mg/kg IV every 8 hours): 16.38
Effect on absolute and relative liver weights (horses [2]; 30, 60, 90 mg/kg IV every 8 hours for 9 days vs placebo): statistically significant increase in absolute and relative liver weights
Renal, hepatic and gastrointestinal gross necropsy and histopathology evaluation (horses [2]; up to 90 mg/kg IV every 8 hours for 9 days): no significant findings
Prothrombin Time LSMEAN (horses [3]; 1X BID, 30 mg/kg IV twice daily for 9 days): 13.407
Prothrombin Time LSMEAN (horses [3]; 1X TID, 30 mg/kg IV three times daily for 9 days): 13.553
Prothrombin Time LSMEAN (horses [3]; 2X BID, 60 mg/kg IV twice daily for 9 days): 13.469
Prothrombin Time LSMEAN (horses [3]; 2X TID, 60 mg/kg IV three times daily for 9 days): 13.733
Prothrombin Time Day 4 Range (horses [3]; [4]): 12.9 to 15.6 s
Prothrombin Time Day 10 Range (horses [3]; [4]): 13.2 to 16.6 s
Difference in Individual Horse Day 10 PT and Baseline PT (horses [3]; [4]): 0.1 to 0.5 s
Prothrombin Time LSMEAN (horses [3]; 3X BID, 90 mg/kg IV twice daily for 9 days): 14.238
Prothrombin Time Day 4 Range (horses [3]; [5]): 13.2 to 14.5 s
Prothrombin Time Day 10 Range (horses [3]; [5]): 13.4 to 14.9 s
Difference in Individual Horse Day 10 PT and Baseline PT (horses [3]; [5]): 0.1 to 0.7 s
Activated partial thromboplastin time (APTT) or fibrinogen (horses [3]; all treatment groups (30-90 mg/kg IV BID or TID, 9 days)): No main treatment effect
